{
  "source": "patent US20220152044A1",
  "about": "“TREATMENT OF INFLAMMATORY DISEASES OF THE CENTRAL NERVOUS SYSTEM” (PALMAYA PTY LTD, priority 2019, published 2022)",
  "key": {"anxiety": {"tested_on": "anxiety", "experiment": "Anxiety during and after medication delivery", "type": "in vivo, human", "details": "flumazenil infusions; for many patients continued for very long periods afterwards", "source_text": "These observations appeared to indicate a cure or recovery of the patients underlying disease rather than relief of symptoms only. These observations included patients treated in five other years as well as the group treated in 2016-2017."}, "any dependency": {"tested_on": "any dependency", "experiment": "Detoxification from any dependency, 108 patients followed", "type": "in vivo, human"}, "opioid use": {"tested_on": "opioid use", "experiment": "Abstinence from opioids in 108 patients treated with flumazenil", "type": "in vivo, human", "details": "91.2% before flumazenil", "source_text": "In the 108 patients treated with flumazenil abstinence from opioids increased from 91.2% before flumazenil to 100% following the flumazenil treatment."}, "cannabis use": {"tested_on": "cannabis use", "experiment": "Survey of 109 patients, cannabis use after flumazenil infusion", "type": "in vivo, human", "source_text": "In a survey of 109 patients daily use was close to halved from 10% to 5.5%."}, "migraine": {"tested_on": "migraine", "experiment": "Treatment of migraine in a person with flumazenil infusion and subcutaneous implants", "type": "in vivo, human", "method": "The patient recently presented to our clinic, and was treated with flumazenil given subcutaneously at a rate of 160 micrograms per hour, delivered by a spring driven pump for a continuous period of time. The time that the migraines regularly occurred was the week prior to menstruation.\n(§1) The patient was then treated with a subcutaneous implant delivering an estimated 60-80 micrograms per hour of flumazenil (based on water bath release rate testing). The implant was expected to last 8-10 weeks. This prevented the migraines for about 9-10weeks. In the week before the implant was inserted, the patient's blood flumazenil level was noted to be 0.5 ng/ml. The usual expected level for 160 microgram an hour infusions was in the order of 2-3 ng per ml and 1-1.5 ng for 80 microgram per hour infusions.\nThis finding that the migraines were stopped for a nine week period of time was amazing to the patient as they had suffered migraines for typically three weeks out of four for all of the years […]. At the end of week 8 on the first implant their blood flumazenil level was recorded as 0.5 ng per ml, which is considered a low level. Within a week another migraine started and the patient presented to the clinic for treatment.\nA further subcutaneous implant was inserted and within four hours all symptoms from the migraine had settled. This was most unusual and unexpected as the symptoms following migraines usually persisted many days for this patient.\nThis next implant was also delivering an estimated 60-80 micrograms of flumazenil per hour. Evidence of ovulation was confirmed by routine elevation of progesterone during the luteal phase of one of the two cycles during the time of this second implant. Again no migraines occurred during an 8-9 week time of the second implant. Blood levels of flumazenil at 1.2 and 1.3 ng/ml were recorded during the time of the second implant. After 9-10 weeks the patient, presented to a teaching hospital on the weekend with another migraine. They were treated with all the modern treatments for migraines without resolution of the migraine.\nA few days later a third implant was inserted. It again was surprising that all symptoms relating to the migraine settled within four hours."}, "[1]": {"experiment": "Water bath release rate testing of flumazenil implant", "type": "physicochemical", "details": "based on water bath release rate testing", "method": "as §1"}, "cannabis withdrawal": {"tested_on": "cannabis withdrawal", "experiment": "Withdrawal from cannabis with high THC concentrations", "type": "in vivo, human", "details": "flumazenil 160 μg/hour", "source_text": "Cannabis use has changed in recent years with a significant cohort describing high tetrahydrocannabinol (THC) concentrations in potent strains which are cultivated for their high THC content. In the patient group using these high concentrations of THC, we have noted that a group of patients give a clear cut history of extreme nausea, vomiting, anxiety changing to serious paranoid thoughts and delusions followed by psychosis over the first 3-5 days of ceasing drug use.\nIn a severe patient population, ondansetron may be given every 6-8 hours to assist in reducing the nausea and associated anxiety symptoms.\nOur results indicated a clear reduction in anxiety, and paranoid symptoms, allowing patients who otherwise would be unable to cope with the symptoms, to cease cannabis use."}, "amphetamine use": {"tested_on": "amphetamine use", "experiment": "Amphetamine / methamphetamine craving and withdrawal", "type": "in vivo, human", "details": "methamphetamine patients, flumazenil infusions at 160 μg/hour", "method": "In those patients that return 2-3 weeks with extreme anxiety and a desire to return to amphetamine use, the commencement of flumazenil infusions followed by a flumazenil implant that sustains a plasma concentration of flumazenil at 0.5-2 ng/ml or more decreases the cravings, including a decrease in the desire for amphetamines and allows reduction f irritability and aggression."}, "[2]": {"experiment": "Swelling at the site of subcutaneous injection of flumazenil solution", "type": "in vivo, human", "details": "16 mg per 30 ml solution, 4 mg in 7.5 ml a day versus standard ampoules 4 mg in 40 ml", "method": "In our experience, this is the first flumazenil solution prepared for subcutaneous delivery making it possible to deliver 4 mg of flumazenil in a volume of just 7.5 ml per day. Clinically, this is preferred to the standard flumazenil preparations, which involve injecting 4 mg in 40 ml per day. For example, the lower volume results in less swelling at the site of injection.\nDuring our development of flumazenil ampoules we have found the preferred pH is about 4±1. In addition, the volume and dilution of flumazenil is preferably 16 mg per 30 ml. In our experience this was the first flumazenil made for subcutaneous delivery, and therefore, a dose of flumazenil at 4 mg can be administered in a volume of only 7.5 ml a day. Clinically, this is more convenient than the standard flumazenil ampoules which involve injecting 4 mg in a volume of 40 ml. […] In addition, the packaging of a dose of flumazenil of 16 mg in 30 ml enables clinical staff to use one ampoule for 4 days at 4 mg a day and one ampoule for 8 days at doses of 2 mg per day."}},
  "data": [
    {"smiles": "CCOC(=O)c1ncn2c1CN(C)C(=O)c1cc(F)ccc1-2", "note": "[flumazenil]", "values": [
      {"measurement": "anxiety during the time of medication delivery", "setting": "anxiety", "result": "reduction of anxiety"},
      {"measurement": "daily use of alcohol, smoking, cannabis, amphetamines, opioids and other drug use", "setting": "any dependency", "result": "reduction in daily use"},
      {"measurement": "abstinence from opioids following treatment", "setting": "opioid use", "result": 100, "unit": "%"},
      {"measurement": "daily cannabis use following treatment", "setting": "cannabis use; 109 patients, 10% before", "result": 5.5, "unit": "%"},
      {"measurement": "abstinence from cannabis following treatment", "setting": "cannabis use; 109 patients, 75% before", "result": 83.5, "unit": "%"},
      {"measurement": "patient-reported cannabis cessation symptoms (nausea day one, anxiety, sleep, paranoid and psychotic thinking, suicidal thoughts)", "setting": "cannabis use; patients who presented to cease cannabis", "result": "anxiety was decreased and sleep was better"},
      {"measurement": "time until all symptoms from the migraine had settled", "setting": "migraine; after insertion of the further (second) subcutaneous implant", "result": "four"},
      {"measurement": "time until all symptoms relating to the migraine settled", "setting": "migraine; after insertion of the third implant", "result": "four"},
      {"measurement": "time without migraines", "setting": "migraine; second implant, estimated 60-80 micrograms flumazenil per hour", "result": "8-9 week"},
      {"measurement": "occurrence of migraine at the expected time (week prior to menstruation)", "setting": "migraine; subcutaneous infusion 160 micrograms per hour by spring driven pump", "result": "did not occur"},
      {"measurement": "estimated delivery rate of flumazenil from subcutaneous implant", "setting": "[1]", "result": "60-80 micrograms per hour"},
      {"measurement": "nausea, vomiting, anxiety, paranoid thoughts, delusions, psychosis on ceasing high-THC cannabis", "setting": "cannabis withdrawal", "result": "controls or reduces the presence of these symptoms"},
      {"measurement": "severe withdrawal symptoms including psychosis or extreme anxiety", "setting": "amphetamine use", "result": "prevent these symptoms"},
      {"measurement": "swelling of the tissues at the site of injection", "setting": "[2]", "result": "less swelling"}
    ]}
  ]
}
